US11659837B2, “Mixtures comprising an urease inhibitor (UI) and a nitrification inhibitor such as 2-(3,4-dimethyl-1H-pyrazol-1-yl)succinic acid (DMPSA) or 3,4-dimethyl pyrazolium glycolate (DMPG)” (BASF SE, priority 2017, dated 2023)

Tested on: N2O emissions from soils
Assay: Greenhouse experiment: detection of nitrous oxide (N2O) losses from pots
Conditions: urea
From the text: Detection of Nitrous Oxide Losses:
On application day (DATO), each pot (with/without plants or algae) was set onto a plant saucer designed with an inner compartment for the pot and an outer ring that is filled with water. At time 0, water holding capacity of the soil was set to 60-70% prior to application with/without fertilizer and a.i. Subsequently, a gas sampling chamber was placed over the plant saucer such that the rim fit into the ring filled with water to create a gas-tight chamber and 25 cc air from the chamber were drawn into a syringe and immediately emptied in to a Vacutainer (Labco, 12 ml volume). This equals the Time 0 measurement for each pot. The same procedure was performed with all pots in the experiment. After two hour incubation time, again 25 cc air samples were taken from the gas chambers and emptied into Vacutainers as described above. Plants were then returned to their positions in the climate chamber. The procedure was repeated at precisely the same time of day for up to 19 days.
Samples were analyzed in a Shimadzu 2014 GC equipped with an ECD system.

[1] = DAT 1, NI 0.20, UI 0.01 where present
[2] = DAT 1, NI 0.35, UI 0.01 where present
[3] = DAT 1, NI 0.50, UI 0.01 where present
[4] = DAT 2, NI 0.20, UI 0.01 where present
[5] = DAT 2, NI 0.35, UI 0.01 where present
[6] = DAT 2, NI 0.50, UI 0.01 where present
[7] = DAT 3, NI 0.20, UI 0.01 where present
[8] = DAT 3, NI 0.35, UI 0.01 where present
[9] = DAT 3, NI 0.50, UI 0.01 where present
[10] = DAT 4, NI 0.20, UI 0.01 where present
[11] = DAT 4, NI 0.35, UI 0.01 where present
[12] = DAT 4, NI 0.50, UI 0.01 where present
[13] = DAT 5, NI 0.20, UI 0.01 where present
[14] = DAT 5, NI 0.35, UI 0.01 where present
[15] = DAT 5, NI 0.50, UI 0.01 where present
[16] = DAT 6, NI 0.20, UI 0.01 where present
[17] = DAT 6, NI 0.35, UI 0.01 where present
[18] = DAT 6, NI 0.50, UI 0.01 where present
[19] = DAT 7, NI 0.20, UI 0.01 where present
[20] = DAT 7, NI 0.35, UI 0.01 where present
[21] = DAT 7, NI 0.50, UI 0.01 where present
[22] = DAT 8, NI 0.20, UI 0.01 where present
[23] = DAT 8, NI 0.35, UI 0.01 where present
[24] = DAT 8, NI 0.50, UI 0.01 where present
[25] = DAT 10, NI 0.20, UI 0.01 where present
[26] = DAT 10, NI 0.35, UI 0.01 where present
[27] = DAT 10, NI 0.50, UI 0.01 where present
[28] = DAT 12, NI 0.20, UI 0.01 where present
[29] = DAT 12, NI 0.35, UI 0.01 where present
[30] = DAT 12, NI 0.50, UI 0.01 where present
[31] = DAT 16, NI 0.20, UI 0.01 where present
[32] = DAT 16, NI 0.35, UI 0.01 where present
[33] = DAT 16, NI 0.50, UI 0.01 where present
[34] = DAT 19, NI 0.20, UI 0.01 where present
[35] = DAT 19, NI 0.35, UI 0.01 where present
[36] = DAT 19, NI 0.50, UI 0.01 where present

Q: What does the source list for `Cc1cn(C(CC(=O)[O-])C(=O)[O-])nc1C.[K+].[K+]` (stereo not shown) [DMPSA-K2]?
A: Nitrous oxide (N2O) emissions, cumulated values [1]: 8.97 μg N2O—N/m2*h; Nitrous oxide (N2O) emissions, cumulated values [2]: 7.74 μg N2O—N/m2*h; Nitrous oxide (N2O) emissions, cumulated values [3]: 7.62 μg N2O—N/m2*h; Nitrous oxide (N2O) emissions, cumulated values [4]: 19.30 μg N2O—N/m2*h; Nitrous oxide (N2O) emissions, cumulated values [5]: 18.94 μg N2O—N/m2*h; Nitrous oxide (N2O) emissions, cumulated values [6]: 20.18 μg N2O—N/m2*h; Nitrous oxide (N2O) emissions, cumulated values [7]: 29.75 μg N2O—N/m2*h; Nitrous oxide (N2O) emissions, cumulated values [8]: 29.26 μg N2O—N/m2*h; Nitrous oxide (N2O) emissions, cumulated values [9]: 30.31 μg N2O—N/m2*h; Nitrous oxide (N2O) emissions, cumulated values [10]: 37.16 μg N2O—N/m2*h; Nitrous oxide (N2O) emissions, cumulated values [11]: 37.09 μg N2O—N/m2*h; Nitrous oxide (N2O) emissions, cumulated values [12]: 37.69 μg N2O—N/m2*h; Nitrous oxide (N2O) emissions, cumulated values [13]: 45.99 μg N2O—N/m2*h; Nitrous oxide (N2O) emissions, cumulated values [14]: 46.55 μg N2O—N/m2*h; Nitrous oxide (N2O) emissions, cumulated values [15]: 46.97 μg N2O—N/m2*h; Nitrous oxide (N2O) emissions, cumulated values [16]: 52.71 μg N2O—N/m2*h; Nitrous oxide (N2O) emissions, cumulated values [17]: 52.67 μg N2O—N/m2*h; Nitrous oxide (N2O) emissions, cumulated values [18]: 52.44 μg N2O—N/m2*h; Nitrous oxide (N2O) emissions, cumulated values [19]: 60.65 μg N2O—N/m2*h; Nitrous oxide (N2O) emissions, cumulated values [20]: 60.12 μg N2O—N/m2*h; Nitrous oxide (N2O) emissions, cumulated values [21]: 62.57 μg N2O—N/m2*h; Nitrous oxide (N2O) emissions, cumulated values [22]: 68.52 μg N2O—N/m2*h; Nitrous oxide (N2O) emissions, cumulated values [23]: 70.52 μg N2O—N/m2*h; Nitrous oxide (N2O) emissions, cumulated values [24]: 72.03 μg N2O—N/m2*h; Nitrous oxide (N2O) emissions, cumulated values [25]: 77.59 μg N2O—N/m2*h; Nitrous oxide (N2O) emissions, cumulated values [26]: 77.77 μg N2O—N/m2*h; Nitrous oxide (N2O) emissions, cumulated values [27]: 79.00 μg N2O—N/m2*h; Nitrous oxide (N2O) emissions, cumulated values [28]: 85.15 μg N2O—N/m2*h; Nitrous oxide (N2O) emissions, cumulated values [29]: 81.35 μg N2O—N/m2*h; Nitrous oxide (N2O) emissions, cumulated values [30]: 82.43 μg N2O—N/m2*h; Nitrous oxide (N2O) emissions, cumulated values [31]: 87.97 μg N2O—N/m2*h; Nitrous oxide (N2O) emissions, cumulated values [32]: 84.12 μg N2O—N/m2*h; Nitrous oxide (N2O) emissions, cumulated values [33]: 84.05 μg N2O—N/m2*h; Nitrous oxide (N2O) emissions, cumulated values [34]: 88.83 μg N2O—N/m2*h; Nitrous oxide (N2O) emissions, cumulated values [35]: 84.94 μg N2O—N/m2*h; Nitrous oxide (N2O) emissions, cumulated values [36]: 84.28 μg N2O—N/m2*h; Nitrous oxide (N2O) emissions, % appl. N (NI 0.20, UI 0.01 where present): 0.381 % appl. N; Nitrous oxide (N2O) emissions, % appl. N (NI 0.35, UI 0.01 where present): 0.364 % appl. N; Nitrous oxide (N2O) emissions, % appl. N (NI 0.50, UI 0.01 where present): 0.361 % appl. N

Q: With `Cc1cn(C(CC(=O)O)C(=O)O)nc1C.N.N` (stereo not shown) [DMPSA-di-NH4] as the molecule, how does the “Nitrous oxide (N2O) emissions, cumulated values” (shortened to “Nitrous oxide … cumulated values”) [1] read?
A: The value was 5.71 μg N2O—N/m2*h.

Q: And the “Nitrous oxide … cumulated values” [2]?
A: Its value is 6.74 μg N2O—N/m2*h.

Q: And the “Nitrous oxide … cumulated values” [3]?
A: Its value is 7.89 μg N2O—N/m2*h.

Q: What about the “Nitrous oxide … cumulated values” [4] of the same molecule?
A: The value was 17.84 μg N2O—N/m2*h.

Q: What about the “Nitrous oxide … cumulated values” [5] of the same molecule?
A: Its value is 22.08 μg N2O—N/m2*h.

Q: And the “Nitrous oxide … cumulated values” [6]?
A: Its value is 16.36 μg N2O—N/m2*h.

Q: And the “Nitrous oxide … cumulated values” [7]?
A: The value was 28.36 μg N2O—N/m2*h.

Q: What about the “Nitrous oxide … cumulated values” [8] of the same molecule?
A: Its value is 30.26 μg N2O—N/m2*h.

Q: And the “Nitrous oxide … cumulated values” [9]?
A: Its value is 23.64 μg N2O—N/m2*h.

Q: What about the “Nitrous oxide … cumulated values” [10] of the same molecule?
A: Its value is 40.61 μg N2O—N/m2*h.

Q: And the “Nitrous oxide … cumulated values” [11]?
A: The value was 39.25 μg N2O—N/m2*h.

Q: What about the “Nitrous oxide … cumulated values” [12] of the same molecule?
A: The value was 31.59 μg N2O—N/m2*h.

Q: And the “Nitrous oxide … cumulated values” [13]?
A: The value was 51.02 μg N2O—N/m2*h.

Q: What about the “Nitrous oxide … cumulated values” [14] of the same molecule?
A: Its value is 47.97 μg N2O—N/m2*h.

Q: And the “Nitrous oxide … cumulated values” [15]?
A: The value was 38.95 μg N2O—N/m2*h.

Q: And the “Nitrous oxide … cumulated values” [16]?
A: Its value is 57.34 μg N2O—N/m2*h.

Q: And the “Nitrous oxide … cumulated values” [17]?
A: The value was 54.68 μg N2O—N/m2*h.

Q: What about the “Nitrous oxide … cumulated values” [18] of the same molecule?
A: Its value is 45.83 μg N2O—N/m2*h.

Q: And the “Nitrous oxide … cumulated values” [19]?
A: Its value is 66.12 μg N2O—N/m2*h.

Q: What about the “Nitrous oxide … cumulated values” [20] of the same molecule?
A: The value was 60.89 μg N2O—N/m2*h.

Q: And the “Nitrous oxide … cumulated values” [21]?
A: The value was 53.03 μg N2O—N/m2*h.

Q: And the “Nitrous oxide … cumulated values” [22]?
A: Its value is 76.79 μg N2O—N/m2*h.

Q: What about the “Nitrous oxide … cumulated values” [23] of the same molecule?
A: The value was 66.75 μg N2O—N/m2*h.

Q: And the “Nitrous oxide … cumulated values” [24]?
A: The value was 62.02 μg N2O—N/m2*h.

Q: What about the “Nitrous oxide … cumulated values” [25] of the same molecule?
A: Its value is 86.54 μg N2O—N/m2*h.

Q: What about the “Nitrous oxide … cumulated values” [26] of the same molecule?
A: The value was 72.23 μg N2O—N/m2*h.

Q: What about the “Nitrous oxide … cumulated values” [27] of the same molecule?
A: The value was 67.48 μg N2O—N/m2*h.

Q: What about the “Nitrous oxide … cumulated values” [28] of the same molecule?
A: The value was 92.81 μg N2O—N/m2*h.

Q: What about the “Nitrous oxide … cumulated values” [29] of the same molecule?
A: The value was 76.32 μg N2O—N/m2*h.

Q: And the “Nitrous oxide … cumulated values” [30]?
A: Its value is 72.35 μg N2O—N/m2*h.

Q: What about the “Nitrous oxide … cumulated values” [31] of the same molecule?
A: The value was 93.10 μg N2O—N/m2*h.

Q: What about the “Nitrous oxide … cumulated values” [32] of the same molecule?
A: The value was 78.21 μg N2O—N/m2*h.

Q: What about the “Nitrous oxide … cumulated values” [33] of the same molecule?
A: The value was 74.66 μg N2O—N/m2*h.

Q: What about the “Nitrous oxide … cumulated values” [34] of the same molecule?
A: Its value is 93.49 μg N2O—N/m2*h.

Q: What about the “Nitrous oxide … cumulated values” [35] of the same molecule?
A: The value was 78.47 μg N2O—N/m2*h.

Q: And the “Nitrous oxide … cumulated values” [36]?
A: Its value is 75.03 μg N2O—N/m2*h.

Q: What about the “Nitrous oxide (N2O) emissions, % appl. N” value (NI 0.20, UI 0.01 where present) of the same molecule?
A: The value was 0.401 % appl. N.

Q: And the “Nitrous oxide (N2O) emissions, % appl. N” value (NI 0.35, UI 0.01 where present)?
A: Its value is 0.337 % appl. N.

Q: What about the “Nitrous oxide (N2O) emissions, % appl. N” value (NI 0.50, UI 0.01 where present) of the same molecule?
A: Its value is 0.322 % appl. N.

Q: How did the “Nitrous oxide … cumulated values” (DAT 1, no NI, UI 0.01) turn out when `CCCCNP(N)(N)=S` [NBPT, N-(n-butyl)thiophosphoric acid triamide, reference compound] was run?
A: The value was 9.77 μg N2O—N/m2*h.

Q: And the “Nitrous oxide … cumulated values” (DAT 2, no NI, UI 0.01)?
A: The value was 27.42 μg N2O—N/m2*h.

Q: What about the “Nitrous oxide … cumulated values” (DAT 3, no NI, UI 0.01) of the same molecule?
A: The value was 40.07 μg N2O—N/m2*h.

Q: And the “Nitrous oxide … cumulated values” (DAT 4, no NI, UI 0.01)?
A: Its value is 53.70 μg N2O—N/m2*h.

Q: And the “Nitrous oxide … cumulated values” (DAT 5, no NI, UI 0.01)?
A: The value was 68.86 μg N2O—N/m2*h.

Q: And the “Nitrous oxide … cumulated values” (DAT 6, no NI, UI 0.01)?
A: The value was 89.16 μg N2O—N/m2*h.

Q: And the “Nitrous oxide … cumulated values” (DAT 7, no NI, UI 0.01)?
A: Its value is 109.04 μg N2O—N/m2*h.

Q: What about the “Nitrous oxide … cumulated values” (DAT 8, no NI, UI 0.01) of the same molecule?
A: Its value is 127.94 μg N2O—N/m2*h.

Q: And the “Nitrous oxide … cumulated values” (DAT 10, no NI, UI 0.01)?
A: The value was 133.95 μg N2O—N/m2*h.

Q: What about the “Nitrous oxide … cumulated values” (DAT 12, no NI, UI 0.01) of the same molecule?
A: The value was 140.07 μg N2O—N/m2*h.

Q: And the “Nitrous oxide … cumulated values” (DAT 16, no NI, UI 0.01)?
A: The value was 143.31 μg N2O—N/m2*h.

Q: What about the “Nitrous oxide … cumulated values” (DAT 19, no NI, UI 0.01) of the same molecule?
A: Its value is 146.30 μg N2O—N/m2*h.

Q: And the “Nitrous oxide (N2O) emissions, % appl. N” value (no NI, UI 0.01)?
A: The value was 0.628 % appl. N.
